According to PubChem BioAssay AID248 (DTP/NCI, 2004):
Where “and” joins values, the source holds several entries; their conditions need not be identical. Equal values may be shown once. Inconclusive results and toxic doses are left out. Rule as the data show it: active = T/C of 150% or more; inactive = T/C below 125%.

System: L1210 leukemia ip in BDF1 mice, survival T/C
Assay: NCI In Vivo Anticancer Drug Screen. Data for tumor model L1210 Leukemia (intraperitoneal) in B6D2F1 (BDF1) mice
Details: endpoint: mean survival time, higher = longer survival
Outline: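 Value reflects the ratio of survival in compound-treated mice to survival in vehicle-treated controls, with both groups carrying the same transplanted tumor.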

[1] = dose: 100.0 mg/kg/injection, schedule: Q04DX003 (ip), vehicle: Klucel (hydroxypropylcellulose) (HPC)
[2] = dose: 200.0 mg/kg/injection, schedule: Q04DX003 (ip), vehicle: Klucel (hydroxypropylcellulose) (HPC)
[3] = dose: 400.0 mg/kg/injection, schedule: Q04DX003 (ip), vehicle: Klucel (hydroxypropylcellulose) (HPC)
[4] = dose: 100.0 mg/kg/injection, schedule: Q04DX003 (ip), vehicle: saline with Tween-80
[5] = dose: 200.0 mg/kg/injection, schedule: Q04DX003 (ip), vehicle: saline with Tween-80
[6] = dose: 100.0 mg/kg/injection, schedule: Q01DX009 (ip), vehicle: saline
[7] = dose: 400.0 mg/kg/injection, schedule: Q01DX009 (ip), vehicle: saline
[8] = dose: 200.0 mg/kg/injection, schedule: Q01DX009 (ip), vehicle: saline

Measured: T/C

Nc1nnnn1C(=O)NCCCl
inactive: dose: 100.0 mg/kg/injection, schedule: Q01DX001 (ip), vehicle: Klucel (hydroxypropylcellulose) (HPC) 111 % of control | dose: 200.0 mg/kg/injection, schedule: Q01DX001 (ip), vehicle: Klucel (hydroxypropylcellulose) (HPC) 97 % of control | dose: 400.0 mg/kg/injection, schedule: Q01DX001 (ip), vehicle: Klucel (hydroxypropylcellulose) (HPC) 94 % of control

C[C@]12CC[C@@H]3c4ccc(OC5CCCCO5)cc4CC[C@H]3[C@@H]1CC[C@@H]2O (stereo partly drawn)
inactive: dose: 146.0 mg/kg/injection, schedule: Q01DX Z (ip), vehicle: steriod suspending solution 96 % of control | dose: 220.0 mg/kg/injection, schedule: Q01DX Z (ip), vehicle: steriod suspending solution 94 % of control | dose: 330.0 mg/kg/injection, schedule: Q01DX Z (ip), vehicle: steriod suspending solution 98 % of control | dose: 500.0 mg/kg/injection, schedule: Q01DX001 (sc), vehicle: steriod suspending solution 102 % of control | dose: 500.0 mg/kg/injection, schedule: Q01DX Z (ip), vehicle: steriod suspending solution 90 % of control | dose: 600.0 mg/kg/injection, schedule: Q01DX001 (sc), vehicle: steriod suspending solution 100 % of control | dose: 700.0 mg/kg/injection, schedule: Q01DX001 (sc), vehicle: steriod suspending solution 96 % of control | dose: 800.0 mg/kg/injection, schedule: Q01DX001 (sc), vehicle: steriod suspending solution 102 % of control

CC1(C)OC2COC3(COC(C)(C)O3)C(O)C2O1 (stereo not drawn)
inactive: dose: 100.0 mg/kg/injection, schedule: Q04DX002 (ip), vehicle: saline 96 % of control | dose: 200.0 mg/kg/injection, schedule: Q04DX002 (ip), vehicle: saline 100 % of control | dose: 400.0 mg/kg/injection, schedule: Q04DX002 (ip), vehicle: saline 104 % of control

O=C1CC(=P(c2ccccc2)(c2ccccc2)c2ccccc2)C(=O)O1
inactive: dose: 50.0 mg/kg/injection, schedule: Q01DX009 (ip), vehicle: saline with Tween-80 103 % of control | dose: 100.0 mg/kg/injection, schedule: Q01DX009 (ip), vehicle: saline with Tween-80 103 % of control | [1] 93 % of control | dose: 200.0 mg/kg/injection, schedule: Q01DX009 (ip), vehicle: saline with Tween-80 100 % of control | [2] 95 % of control | [3] 93 % of control

O=C1NC(=S)S/C1=C\c1ccncc1
inactive: dose: 50.0 mg/kg/injection, schedule: Q01DX001 (ip), vehicle: carboxymethylcellulose (CMC) 94 % of control | dose: 100.0 mg/kg/injection, schedule: Q01DX001 (ip), vehicle: carboxymethylcellulose (CMC) 89 % of control | dose: 200.0 mg/kg/injection, schedule: Q01DX001 (ip), vehicle: carboxymethylcellulose (CMC) 92 % of control | dose: 400.0 mg/kg/injection, schedule: Q01DX001 (ip), vehicle: carboxymethylcellulose (CMC) 99 % of control

Cc1ccc(C)c(Cc2c(C=O)[nH]c(=S)[nH]c2=O)c1
inactive: [4] 97 % of control | [5] 101 % of control | dose: 400.0 mg/kg/injection, schedule: Q04DX003 (ip), vehicle: saline with Tween-80 110 % of control

CCSc1nc(Cl)cc(Sc2nc(N)nc3nc[nH]c23)n1
inactive: dose: 10.0 mg/kg/injection, schedule: Q01DX009 (ip), vehicle: saline 104 % of control | dose: 12.0 mg/kg/injection, schedule: Q01DX001 (ip), vehicle: saline 100 % of control | dose: 15.0 mg/kg/injection, schedule: Q04DX003 (ip), vehicle: saline 116 % of control | dose: 19.0 mg/kg/injection, schedule: Q01DX001 (ip), vehicle: saline 119 % of control | dose: 20.0 mg/kg/injection, schedule: Q01DX009 (ip), vehicle: saline 115 % of control | dose: 30.0 mg/kg/injection, schedule: Q04DX003 (ip), vehicle: saline 122 % of control | dose: 45.0 mg/kg/injection, schedule: Q01DX001 (ip), vehicle: saline 123 % of control | dose: 50.0 mg/kg/injection, schedule: Q04DX003 (ip), vehicle: saline 118 % of control | dose: 66.0 mg/kg/injection, schedule: Q01DX001 (ip), vehicle: saline 114 % of control and 123 % of control | dose: 100.0 mg/kg/injection, schedule: Q01DX Z (ip), vehicle: methylcellulose (MC) 115 % of control | dose: 200.0 mg/kg/injection, schedule: Q01DX001 (ip), vehicle: saline 100 % of control | dose: 200.0 mg/kg/injection, schedule: Q01DX Z (ip), vehicle: methylcellulose (MC) 122 % of control | [7] 108 % of control | dose: 400.0 mg/kg/injection, schedule: Q01DX Z (ip), vehicle: carboxymethylcellulose (CMC) 102 % of control | dose: 600.0 mg/kg/injection, schedule: Q01DX009 (ip), vehicle: saline 121 % of control | dose: 800.0 mg/kg/injection, schedule: Q01DX Z (ip), vehicle: carboxymethylcellulose (CMC) 90 % of control | dose: 810.0 mg/kg/injection, schedule: Q01DX001 (ip), vehicle: saline 124 % of control | dose: 810.0 mg/kg/injection, schedule: Q04DX003 (ip), vehicle: saline 119 % of control
active: [6] 156 % of control | dose: 120.0 mg/kg/injection, schedule: Q04DX003 (ip), vehicle: saline 151 % of control | dose: 132.0 mg/kg/injection, schedule: Q04DX003 (ip), vehicle: saline with Tween-80 175 % of control | [2] 158 % of control | [5] 200 % of control | dose: 240.0 mg/kg/injection, schedule: Q01DX001 (ip), vehicle: saline 193 % of control | dose: 240.0 mg/kg/injection, schedule: Q04DX003 (ip), vehicle: saline 204 % of control | dose: 300.0 mg/kg/injection, schedule: Q04DX003 (ip), vehicle: Klucel (hydroxypropylcellulose) (HPC) 168 % of control | dose: 300.0 mg/kg/injection, schedule: Q04DX003 (ip), vehicle: saline with Tween-80 180 % of control | dose: 360.0 mg/kg/injection, schedule: Q01DX001 (ip), vehicle: saline 205 % of control | dose: 360.0 mg/kg/injection, schedule: Q04DX003 (ip), vehicle: saline 188 % of control

CC(C)(C)N=NC1(S(=O)(=O)c2ccccc2)CCCCC1
inactive: [1] 98 % of control | [2] 93 % of control | [3] 91 % of control

Cc1ccc(C(=O)CCl)o1
inactive: [4] 106 % of control | [5] 116 % of control

Cc1c(Br)c(=O)n(-c2ccccc2)n1C
inactive: dose: 50.0 mg/kg/injection, schedule: Q01DX009 (ip), vehicle: Klucel (hydroxypropylcellulose) (HPC) 94 % of control | dose: 100.0 mg/kg/injection, schedule: Q01DX009 (ip), vehicle: Klucel (hydroxypropylcellulose) (HPC) 98 % of control | [1] 101 % of control | dose: 200.0 mg/kg/injection, schedule: Q01DX009 (ip), vehicle: Klucel (hydroxypropylcellulose) (HPC) 100 % of control | [2] 100 % of control

CCSCCSCC
inactive: [6] 98 % of control | dose: 100.0 mg/kg/injection, schedule: Q04DX003 (ip), vehicle: saline 101 % of control | [8] 98 % of control | dose: 200.0 mg/kg/injection, schedule: Q04DX003 (ip), vehicle: saline 97 % of control | [7] 96 % of control | dose: 400.0 mg/kg/injection, schedule: Q04DX003 (ip), vehicle: saline 97 % of control

C=C[N+](C)(C)C
inactive: dose: 5.0 mg/kg/injection, schedule: Q01DX001 (ip), vehicle: saline 100 % of control | dose: 10.0 mg/kg/injection, schedule: Q01DX001 (ip), vehicle: saline 107 % of control | dose: 20.0 mg/kg/injection, schedule: Q01DX001 (ip), vehicle: saline 103 % of control | dose: 40.0 mg/kg/injection, schedule: Q01DX001 (ip), vehicle: saline 103 % of control

CCOC(=O)C(C)NC(=O)C(CSC(c1ccccc1)(c1ccccc1)c1ccccc1)NC(c1ccccc1)(c1ccccc1)c1ccccc1 (stereo not drawn)
inactive: dose: 25.0 mg/kg/injection, schedule: Q01DX009 (ip), vehicle: saline 98 % of control | dose: 50.0 mg/kg/injection, schedule: Q01DX009 (ip), vehicle: saline 103 % of control | [6] 92 % of control | [8] 93 % of control | [7] 98 % of control

CC(=O)Oc1c(C)cccc1C(=O)O
inactive: [1] 92 % of control | [2] 103 % of control | [3] 88 % of control

CNC(=O)N(C)N=O
inactive: dose: 10.0 mg/kg/injection, schedule: Q01DX Z (ip), vehicle: carboxymethylcellulose (CMC) 92 % of control | dose: 125.0 mg/kg/injection, schedule: Q01DX Z (ip), vehicle: carboxymethylcellulose (CMC) 101 % of control
active: dose: 75.0 mg/kg/injection, schedule: Q01DX Z (ip), vehicle: carboxymethylcellulose (CMC) 157 % of control and 168 % of control | dose: 100.0 mg/kg/injection, schedule: Q01DX Z (ip), vehicle: carboxymethylcellulose (CMC) 155 % of control
